Assay type in all cases: biochemical
One experiment concerns the target T1, human NRK1 (Homo sapiens, UniProt Q9NWW6).
T1 construct: gene NMRK1; full length, C-terminal His6, pET-28a, E. coli BL21 (DE3)
T1 sequence (Q9NWW6 1-199): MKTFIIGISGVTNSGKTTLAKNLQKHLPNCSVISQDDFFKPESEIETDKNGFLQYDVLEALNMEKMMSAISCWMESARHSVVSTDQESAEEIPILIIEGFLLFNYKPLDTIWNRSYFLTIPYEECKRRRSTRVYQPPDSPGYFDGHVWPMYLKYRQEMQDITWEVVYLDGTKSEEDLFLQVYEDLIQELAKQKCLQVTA
The experiment can be described thus: HPLC conversion. As to conditions: […] NR6, […] ATP, […] MgCl2, pH […], room temperature.

Experiment [1] concerns the target T2, catalytic domain of human PARP5a (Homo sapiens, UniProt O95271).
T2 construct: gene TNKS; catalytic domain residues 1093-1327, C-terminal His6, E. coli BL21 (DE3)
T2 sequence (O95271 1093-1327): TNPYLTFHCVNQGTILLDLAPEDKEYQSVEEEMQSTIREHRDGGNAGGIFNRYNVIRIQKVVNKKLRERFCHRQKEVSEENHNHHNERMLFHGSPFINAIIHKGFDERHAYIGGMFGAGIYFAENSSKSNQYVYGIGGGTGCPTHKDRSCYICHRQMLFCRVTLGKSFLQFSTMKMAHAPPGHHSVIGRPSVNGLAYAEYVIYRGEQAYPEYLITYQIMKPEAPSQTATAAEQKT
In words: automodification, click biotin labelling, streptavidin-HRP immunoblot. To be noted: […] analogue, […] MgCl2, pH […].

For experiment [2], the target named is T3, catalytic domain of human PARP10 (Homo sapiens, UniProt Q53GL7).
T3 construct: catalytic domain residues 809-1017, N-terminal His6, E. coli BL21 (DE3)
T3 sequence (Q53GL7 809-1017): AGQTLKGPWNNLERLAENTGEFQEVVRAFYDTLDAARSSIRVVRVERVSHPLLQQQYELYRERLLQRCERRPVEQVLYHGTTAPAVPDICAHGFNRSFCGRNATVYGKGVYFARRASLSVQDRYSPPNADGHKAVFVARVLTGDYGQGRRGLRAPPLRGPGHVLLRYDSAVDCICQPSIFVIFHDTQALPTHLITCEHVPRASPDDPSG
The description is as above. As to conditions: […] analogue, […] MgCl2, pH […].

For `[N-]=[N+]=N[C@H]1[C@@H](O)[C@H]([n+]2cccc(C(N)=O)c2)O[C@@H]1CO` [NR6], the HPLC conversion entry on human NRK1 was “NRK1 that could only catalyze conversion of NR5 and NR6”.

As for `C#Cc1nc(N)c2ncn([C@@H]3O[C@H](COP(=O)(O)OP(=O)([O-])OC[C@H]4O[C@@H]([n+]5cccc(C(N)=O)c5)[C@H](O)[C@@H]4O)[C@@H](O)[C@H]3O)c2n1` [2-a-NAD^+, 2-alkyne-NAD^+], the “automodification, click biotin labelling, streptavidin-HRP immunoblot” value in experiment [1] is 6-a-NAD^+ and 2-a-NAD^+ that displayed strong automodification activities for both enzymes; in experiment [2] it was 6-a-NAD^+ and 2-a-NAD^+ that displayed strong automodification activities for both enzymes.

For `C#CCNc1ncnc2c1ncn2[C@@H]1O[C@H](COP(=O)(O)OP(=O)([O-])OC[C@H]2O[C@@H]([n+]3cccc(C(N)=O)c3)[C@H](O)[C@@H]2O)[C@@H](O)[C@H]1O` [6-a-NAD^+, 6-alkyne-NAD^+], the “automodification, click biotin labelling, streptavidin-HRP immunoblot” value was 6-a-NAD^+ and 2-a-NAD^+ that displayed strong automodification activities for both enzymes in experiment [1]; 6-a-NAD^+ and 2-a-NAD^+ that displayed strong automodification activities for both enzymes in experiment [2].

The record behind these values is article PMC6744458, “A ribose-functionalized NAD^+ with unexpected high activity and selectivity for protein poly-ADP-ribosylation” (Nature Communications, 2019).
